Assay results: patent publication US6887882B2, “Pharmaceutical compositions comprising chelidonine or derivatives thereof” (priority 2002, dated 2005)

Experiments:
hKv1.5 channel [1] = biological target: T1, hKv1.5 channel (Homo sapiens, UniProt P22460); experiment: Channel state-dependency of hKv1.5 block (tail currents); type: cell-based; settings: 10 μM; tail currents at -50 mV after +50 mV pulse
T1 construct: expressed in transfected cells; host or cells: mouse Ltk- cells (pMSVneo vector, G418 selection)
T1 sequence (P22460 whole entry): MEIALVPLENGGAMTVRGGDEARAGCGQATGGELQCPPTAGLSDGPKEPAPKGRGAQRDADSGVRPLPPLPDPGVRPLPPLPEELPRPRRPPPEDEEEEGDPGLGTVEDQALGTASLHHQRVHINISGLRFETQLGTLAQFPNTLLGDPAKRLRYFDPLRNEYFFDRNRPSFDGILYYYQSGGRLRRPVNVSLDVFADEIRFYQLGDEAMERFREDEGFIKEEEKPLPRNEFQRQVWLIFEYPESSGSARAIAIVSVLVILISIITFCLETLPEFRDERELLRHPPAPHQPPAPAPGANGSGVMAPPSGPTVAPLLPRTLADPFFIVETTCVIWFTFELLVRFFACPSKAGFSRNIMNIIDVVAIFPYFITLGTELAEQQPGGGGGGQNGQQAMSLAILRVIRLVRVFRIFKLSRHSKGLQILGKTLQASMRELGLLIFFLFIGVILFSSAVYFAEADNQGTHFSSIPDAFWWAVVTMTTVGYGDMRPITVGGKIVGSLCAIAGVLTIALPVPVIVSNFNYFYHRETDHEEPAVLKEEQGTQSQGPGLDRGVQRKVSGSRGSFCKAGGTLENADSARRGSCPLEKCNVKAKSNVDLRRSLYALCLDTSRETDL
From the text: We tested the channel state-dependency of hKv1.5 block by chelidonine (FIG. 3).
Under control conditions, the tail currents were rapidly deactivated.

hKv1.5 channel [2] = biological target: T1, hKv1.5 channel; experiment: Block of hKv1.5 channel currents expressed in Ltk-cells (whole cell patch clamp); type: cell-based
Description: Cell line selectively expressing a specific cardiac K^+ channel gene was prepared according to the method described in the thesis (Yang, et al., Inhibition of cardiac potassium currents by the vesnarinone analog OPC-18790: comparison with quinidine and dofetilide. J Pharmacol Exp Ther. 1997, 280: 1170-1175; Kwak, et al., Phosphorylation is required for alteration of Kv1.5 K^+ channel function by the Kvbeta 1.3 subunit. J Biol Chem 1999, 274: 25355-25361).
First, cDNAs for human cardiac K^+ channel genes such as hKv 1.5 and HERG were subcloned into pMSVneo which contain dexamethasone-inducible murine mammary tumor virus promoter controlling transcription of the inserted cDNA and a gene conferring neomycin resistance driven by the SV40 early promotor. The cDNA-containing expression vector was transfected into mouse Ltk-cells with lipofectamine. After 24 hours, the cells selection with […] of G418 was performed for 2 weeks or until discrete foci formed. Individual foci were isolated, maintained in 0.25 μg/ml of G418, and screened by Norhtern analysis and electrophysiological analysis. Transfected cells were cultured in Dulbeco's modified Eagle medium (DMEM) supplemented with 10% horse serum and 0.25 μg/ml of G418, under 5% CO2. Transiently transfected cells were cultured in DMEM media supplemented with only 10% horse serum, differently from stable cell lines.
(§1) Currents in human atrial myocytes and cell lines were recorded by using the whole cell configuration of the gigaohm-seal patch clamp techniques (Kwak, et al., Phosphorylation is required for alteration of Kv1.5 K^+ channel function by the Kvbeta 1.3 subunit. J Biol Chem 1999, 274: 25355-25361). First, electrical signals were amplified with a patch clamp amplifier (Axon Instruments, Axopatch-1D, Foster, USA). Currents were digitized by a signal converter (Digidata 1200, Axon Instruments) and stored on the hard disk of a computer. The micropipette with a resistance of 1˜2MΩ (Kimax-51, 1.5=14 1.8×10 mm) for current recording, was pulled out by a 2-stage pipette puller (Narishige, PP-83). The intracellular pipette-filling solution for whole cell mode contained 100 mM KCl, 10 mM HEPES, 5 mM K4BAPTA, 5 mM K2ATP and 1 mM MgCl2 (pH 7.2). The extracellular solution contained 130 mM NaCl, 4 mM KCl, 1.8 mM CaCl2, 1 mM MgCl2, 10 mM HEPES and 10 mM glucose (pH 7.35).
The current traces were recorded with a depolarizing pulse of +50 mV from a holding potential of −80 mV, followed by a repolarizing pulse of −50 mV in the Ltk-cells. To observe the concentration-dependent block of hKv1.5 channel currents by each compound, steady-state currents taken at the end of the depolarizing pulse of +50 mV were normalized to the control obtained in the absence of each compound
FIG. 1e is concentration-response curves showing the relative steady-state currents obtained at the end of the depolarizing pulse against the concentration of each compound. Data were fitted with a Hill equation.
IC50 values (50% inhibitory concentration, μM) of compounds 1˜14 on the hKv1.5 channel currents were determined, and Hill values were calculated from the concentration-response curves of the respective compounds using the Hill equation.

mouse = settings: intravenously; cited from earlier work
[3] = tested on: K+ channel current in human atrial myocytes; experiment: Effect on the K+ current in human atrial myocytes (whole cell patch clamp); type: cell-based
Description: as §1
Isolation of human atrial myocytes was carried out by the Wang, et al.'s method (Effects of flecainide, quinidine, and 4-aminopyridine on transient outward and ultrarapid delayed rectifier currents in human atrial myocytes. J Pharmacol Exp Ther 1995, 272: 184-196). Specimens of human right atrial appendage were obtained from the hearts of patients undergoing cardiopulmonary bypass surgery. […]

For `CN1Cc2c(ccc3c2OCO3)[C@@H]2[C@H]1c1cc3c(cc1C[C@@H]2O)OCO3` [Compound 1, [5bR-(5bα,6β,12bα)]-5b,6,7,12b,13, 14-hexahydro-13-methyl[1,3]benzodioxolo[5,6c]-1,3-dioxolo[4,5-i]phenanthridin-6-ol], the “channel state-dependency of hKv1.5 block” value (hKv1.5 channel [1]) was “acts as an open channel blocker”, the Hill value (hKv1.5 channel [2]; from concentration-response curves using the Hill equation) was 1.07 and the “type of hKv1.5 block” value (hKv1.5 channel [2]; hKv1.5 expressed in Ltk-cells, FIGS. 1a to 1e) was “predominantly blocked the open ion channels”. The “effect on the hKv1.5 channel currents” value (hKv1.5 channel [2]; hKv1.5 expressed in Ltk-cells, FIGS. 1a to 1d) was “concentration-dependent inhibitory effects”, the IC50 (hKv1.5 channel [2]; hKv1.5 expressed in Ltk-cells, steady-state current at end of +50 mV depolarizing pulse, holding -80 mV) was 11.5 ± 3.1 µM and the toxicity (mouse) was 34.6 ± 2.44 mg/kg. For the same molecule, the “effect on peak amplitude of outward K+ current” value ([3]; 10 μM) was “decreased the peak amplitude” and the inhibition at 10 µM ([3]; compared to control, n=7, read-out: inhibition of steady-state currents at the end of the depolarizing pulse of +50 mV) was 41 ± 5%.
